pIC50: −log10 of the molar value. Calls of active or inactive are those of the source. The calls are words filed in the database; no cut-off is given here.
Key:
[1] = Cmax in 12 hr fasted SPF Sprague-Dawley rat at 15 mg/kg, po upon 2 hrs fasting post-administration measured upto 24 hrs; type: ADME, organism-based; parameters: time < 24 hrs, dose 15 mg/kg, route po; settings: in vivo
[2] = Clearance in 12 hr fasted SPF Sprague-Dawley rat at 5 mg/kg, iv upon 2 hrs fasting post-administration measured upto 24 hrs; type: ADME, organism-based; settings: in vivo
[3] = molecular target: Tyrosine-protein kinase JAK2 (Homo sapiens, UniProt O60674); assay: Inhibition of human JAK2 at 0.5 uM relative to control
[4] = molecular target: T1, Tyrosine-protein kinase JAK3 (Homo sapiens) (UniProt P52333); assay: Inhibition of human JAK3 at 0.5 uM relative to control
T1 sequence (whole entry): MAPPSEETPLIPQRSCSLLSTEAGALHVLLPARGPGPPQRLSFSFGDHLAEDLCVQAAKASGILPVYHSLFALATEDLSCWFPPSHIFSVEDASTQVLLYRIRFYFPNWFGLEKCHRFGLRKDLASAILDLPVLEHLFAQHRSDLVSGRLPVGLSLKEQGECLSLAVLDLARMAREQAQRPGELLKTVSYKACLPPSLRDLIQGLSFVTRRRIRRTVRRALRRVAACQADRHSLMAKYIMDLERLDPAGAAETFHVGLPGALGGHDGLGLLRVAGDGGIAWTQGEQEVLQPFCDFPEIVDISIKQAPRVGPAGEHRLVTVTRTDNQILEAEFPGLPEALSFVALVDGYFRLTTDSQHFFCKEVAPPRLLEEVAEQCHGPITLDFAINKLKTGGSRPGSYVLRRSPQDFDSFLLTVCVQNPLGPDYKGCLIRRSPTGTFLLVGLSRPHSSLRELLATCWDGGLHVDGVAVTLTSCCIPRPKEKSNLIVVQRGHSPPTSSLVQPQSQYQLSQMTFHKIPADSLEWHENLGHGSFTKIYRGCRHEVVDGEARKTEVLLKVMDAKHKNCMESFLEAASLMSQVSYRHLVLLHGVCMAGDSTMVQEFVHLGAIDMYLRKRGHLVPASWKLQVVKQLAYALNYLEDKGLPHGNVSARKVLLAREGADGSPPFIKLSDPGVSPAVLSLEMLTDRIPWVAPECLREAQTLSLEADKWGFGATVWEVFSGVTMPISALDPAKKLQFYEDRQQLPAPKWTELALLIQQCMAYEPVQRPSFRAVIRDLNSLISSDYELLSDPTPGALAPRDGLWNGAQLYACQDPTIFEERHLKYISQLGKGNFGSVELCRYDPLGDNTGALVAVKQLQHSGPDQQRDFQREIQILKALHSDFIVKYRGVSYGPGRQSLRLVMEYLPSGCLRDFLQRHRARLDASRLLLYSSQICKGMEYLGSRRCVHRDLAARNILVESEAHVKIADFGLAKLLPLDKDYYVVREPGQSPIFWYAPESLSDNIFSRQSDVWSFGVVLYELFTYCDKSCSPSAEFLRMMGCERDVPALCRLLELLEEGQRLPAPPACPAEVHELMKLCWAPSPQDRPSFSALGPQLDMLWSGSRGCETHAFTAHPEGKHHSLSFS

[5] = molecular target: Non-receptor tyrosine-protein kinase TYK2 (Homo sapiens, UniProt P29597); assay: Inhibition of human TYK2 at 0.5 uM relative to control
[6] = molecular target: Receptor-type tyrosine-protein kinase FLT3 (Homo sapiens, UniProt P36888); assay: Inhibition of human FLT3
[7] = molecular target: Receptor tyrosine-protein kinase erbB-4 (Homo sapiens) (UniProt Q15303); assay: Inhibition of HER4 (unknown origin) at 0.5 uM relative to control
[8] = molecular target: T2, Signal transducer and activator of transcription 5A (Homo sapiens) (UniProt P42229); assay: Inhibition of STAT5 activation in human U-937 cells assessed as decrease in P-STAT5 incubated for 0 to 24 hrs by Western blot analysis; type: cell-based; settings: time 0-24 hrs, DDE = dose-dependent effect
T2 sequence (whole entry): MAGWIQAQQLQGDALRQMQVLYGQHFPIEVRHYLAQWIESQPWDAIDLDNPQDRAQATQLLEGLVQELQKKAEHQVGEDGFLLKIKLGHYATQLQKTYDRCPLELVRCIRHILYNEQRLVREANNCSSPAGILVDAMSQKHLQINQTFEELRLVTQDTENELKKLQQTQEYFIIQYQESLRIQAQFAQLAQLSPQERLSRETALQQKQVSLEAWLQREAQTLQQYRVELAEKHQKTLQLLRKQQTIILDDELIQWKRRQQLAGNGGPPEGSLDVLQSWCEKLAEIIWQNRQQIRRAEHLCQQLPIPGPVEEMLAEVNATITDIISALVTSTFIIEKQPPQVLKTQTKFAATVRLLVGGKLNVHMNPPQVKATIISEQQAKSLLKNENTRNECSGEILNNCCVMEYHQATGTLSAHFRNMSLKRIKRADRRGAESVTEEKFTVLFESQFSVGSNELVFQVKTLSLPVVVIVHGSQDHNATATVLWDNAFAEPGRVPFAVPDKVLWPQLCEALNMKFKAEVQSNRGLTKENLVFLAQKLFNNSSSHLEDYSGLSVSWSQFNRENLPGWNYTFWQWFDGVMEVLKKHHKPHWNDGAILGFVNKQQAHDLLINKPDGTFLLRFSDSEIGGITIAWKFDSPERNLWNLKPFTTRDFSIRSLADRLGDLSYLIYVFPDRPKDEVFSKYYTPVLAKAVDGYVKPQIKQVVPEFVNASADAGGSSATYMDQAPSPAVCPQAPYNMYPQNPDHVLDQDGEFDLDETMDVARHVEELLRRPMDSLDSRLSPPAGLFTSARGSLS

U-937 [9] = assay: Induction of cell cycle arrest in human U-937 cells assessed as accumulation at G0/G1 phase at 3.7 nM measured after 24 hrs by propidium iodide staining based flow cytometric analysis (reference value: 62.95%); type: functional
U-937 [10] = assay: Induction of cell cycle arrest in human U-937 cells assessed as accumulation at S phase at 100 nM measured after 24 hrs by propidium iodide staining based flow cytometric analysis (reference value: 15.35%); type: functional
U-937 [11] = assay: Induction of cell cycle arrest in human U-937 cells assessed as downregulation of CDK2 at 0 to 300 nM measured after 24 hrs by western blot analysis; type: functional, cell-based; settings: dose 0-300 nM
[12] = molecular target: T1, Tyrosine-protein kinase JAK3 (Homo sapiens); assay: Inhibition of human JAK3 at 0.5 uM assessed as competition rate relative to control
[13] = molecular target: Receptor-type tyrosine-protein kinase FLT3 (Homo sapiens) (UniProt P36888); assay: Inhibition of human FLT3 at 0.5 uM assessed as competition rate relative to control
[14] = molecular target: Cyclin-dependent kinase 16 (Homo sapiens) (UniProt Q00536); assay: Inhibition of human CDK16 at 0.5 uM assessed as competition rate relative to control
[15] = molecular target: Tyrosine-protein kinase Tec (Homo sapiens) (UniProt P42680); assay: Inhibition of TEC (unknown origin) at 0.5 uM assessed as competition rate relative to control
U-937 [16] = assay: cells; settings: Homo sapiens, U-937, 72 h

Chain of Receptor tyrosine-protein kinase erbB-4 (Homo sapiens) (Q15303 whole entry): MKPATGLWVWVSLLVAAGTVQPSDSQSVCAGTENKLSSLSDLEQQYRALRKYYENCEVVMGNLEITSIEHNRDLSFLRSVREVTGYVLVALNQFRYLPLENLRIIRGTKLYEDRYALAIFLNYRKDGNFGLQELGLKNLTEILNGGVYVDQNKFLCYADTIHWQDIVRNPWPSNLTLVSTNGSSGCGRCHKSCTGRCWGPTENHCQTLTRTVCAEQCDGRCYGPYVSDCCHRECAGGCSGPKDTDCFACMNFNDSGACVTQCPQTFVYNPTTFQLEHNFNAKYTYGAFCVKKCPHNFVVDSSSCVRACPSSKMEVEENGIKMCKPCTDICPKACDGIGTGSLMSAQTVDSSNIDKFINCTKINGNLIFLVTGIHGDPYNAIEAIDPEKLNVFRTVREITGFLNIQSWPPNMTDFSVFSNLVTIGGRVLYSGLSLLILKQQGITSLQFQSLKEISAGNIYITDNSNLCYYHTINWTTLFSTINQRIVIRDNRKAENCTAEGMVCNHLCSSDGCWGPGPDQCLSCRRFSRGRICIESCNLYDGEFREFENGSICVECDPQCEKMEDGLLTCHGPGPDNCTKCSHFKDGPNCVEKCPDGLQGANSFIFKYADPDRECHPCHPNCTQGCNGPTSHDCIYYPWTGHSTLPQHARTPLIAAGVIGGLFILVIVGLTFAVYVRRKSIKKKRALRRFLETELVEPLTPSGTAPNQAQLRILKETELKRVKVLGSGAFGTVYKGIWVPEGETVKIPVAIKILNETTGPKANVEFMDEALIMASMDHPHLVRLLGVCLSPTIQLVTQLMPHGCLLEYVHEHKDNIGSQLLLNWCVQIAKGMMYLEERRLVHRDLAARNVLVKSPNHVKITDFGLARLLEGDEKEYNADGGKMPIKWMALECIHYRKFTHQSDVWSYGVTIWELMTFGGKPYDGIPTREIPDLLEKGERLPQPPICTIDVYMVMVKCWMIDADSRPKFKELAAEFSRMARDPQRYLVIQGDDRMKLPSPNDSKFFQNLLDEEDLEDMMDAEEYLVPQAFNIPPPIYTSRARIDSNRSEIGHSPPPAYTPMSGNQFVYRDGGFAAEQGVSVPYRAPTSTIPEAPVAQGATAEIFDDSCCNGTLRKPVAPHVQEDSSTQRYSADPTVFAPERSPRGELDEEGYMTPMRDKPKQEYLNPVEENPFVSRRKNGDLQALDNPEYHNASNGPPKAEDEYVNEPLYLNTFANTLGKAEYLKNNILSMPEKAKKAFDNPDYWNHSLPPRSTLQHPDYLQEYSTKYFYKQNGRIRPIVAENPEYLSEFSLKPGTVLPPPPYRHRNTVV
Chain of Tyrosine-protein kinase JAK2 (O60674 whole entry): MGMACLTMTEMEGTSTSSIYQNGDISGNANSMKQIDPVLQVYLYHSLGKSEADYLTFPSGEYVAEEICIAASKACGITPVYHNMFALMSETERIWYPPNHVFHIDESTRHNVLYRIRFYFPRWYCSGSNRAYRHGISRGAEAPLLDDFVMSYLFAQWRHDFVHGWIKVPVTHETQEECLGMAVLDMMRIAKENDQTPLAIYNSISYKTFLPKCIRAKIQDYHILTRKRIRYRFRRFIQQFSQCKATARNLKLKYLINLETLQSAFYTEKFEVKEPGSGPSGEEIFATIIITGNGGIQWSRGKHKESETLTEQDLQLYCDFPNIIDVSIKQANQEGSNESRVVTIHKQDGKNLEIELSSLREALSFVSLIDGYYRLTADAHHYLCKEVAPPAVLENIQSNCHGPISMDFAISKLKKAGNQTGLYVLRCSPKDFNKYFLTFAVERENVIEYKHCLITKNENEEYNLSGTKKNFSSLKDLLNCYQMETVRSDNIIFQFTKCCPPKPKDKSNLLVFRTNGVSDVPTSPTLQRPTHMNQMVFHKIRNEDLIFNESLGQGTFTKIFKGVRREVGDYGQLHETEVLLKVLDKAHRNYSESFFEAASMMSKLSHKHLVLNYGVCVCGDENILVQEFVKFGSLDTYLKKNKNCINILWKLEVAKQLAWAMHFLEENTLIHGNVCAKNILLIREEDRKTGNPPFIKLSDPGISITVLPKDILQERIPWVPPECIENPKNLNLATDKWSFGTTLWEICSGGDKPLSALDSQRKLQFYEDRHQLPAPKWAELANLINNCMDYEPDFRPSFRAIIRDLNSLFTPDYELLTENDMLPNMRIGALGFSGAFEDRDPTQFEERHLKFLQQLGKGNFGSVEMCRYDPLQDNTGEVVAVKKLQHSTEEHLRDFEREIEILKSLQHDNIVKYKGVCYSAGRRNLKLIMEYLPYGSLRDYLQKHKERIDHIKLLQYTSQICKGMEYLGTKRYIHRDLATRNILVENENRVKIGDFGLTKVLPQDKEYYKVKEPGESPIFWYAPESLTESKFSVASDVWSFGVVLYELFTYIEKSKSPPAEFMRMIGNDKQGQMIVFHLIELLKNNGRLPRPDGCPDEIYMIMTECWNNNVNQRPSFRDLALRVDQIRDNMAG
Chain of Cyclin-dependent kinase 16 (Homo sapiens) (Q00536 whole entry): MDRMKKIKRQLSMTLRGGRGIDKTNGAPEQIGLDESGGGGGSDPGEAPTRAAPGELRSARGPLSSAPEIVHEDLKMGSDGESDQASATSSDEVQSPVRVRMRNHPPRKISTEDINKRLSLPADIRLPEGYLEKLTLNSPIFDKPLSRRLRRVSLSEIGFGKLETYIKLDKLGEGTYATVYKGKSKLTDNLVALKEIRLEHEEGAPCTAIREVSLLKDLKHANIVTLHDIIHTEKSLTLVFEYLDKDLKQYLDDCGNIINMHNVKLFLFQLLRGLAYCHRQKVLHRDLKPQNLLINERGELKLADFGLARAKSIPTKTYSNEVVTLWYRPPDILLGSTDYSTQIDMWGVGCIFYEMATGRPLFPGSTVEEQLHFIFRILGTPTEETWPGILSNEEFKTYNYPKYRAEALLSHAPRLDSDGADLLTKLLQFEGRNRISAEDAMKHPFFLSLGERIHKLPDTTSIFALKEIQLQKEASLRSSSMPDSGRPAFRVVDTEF
Chain of Receptor-type tyrosine-protein kinase FLT3 (P36888 whole entry): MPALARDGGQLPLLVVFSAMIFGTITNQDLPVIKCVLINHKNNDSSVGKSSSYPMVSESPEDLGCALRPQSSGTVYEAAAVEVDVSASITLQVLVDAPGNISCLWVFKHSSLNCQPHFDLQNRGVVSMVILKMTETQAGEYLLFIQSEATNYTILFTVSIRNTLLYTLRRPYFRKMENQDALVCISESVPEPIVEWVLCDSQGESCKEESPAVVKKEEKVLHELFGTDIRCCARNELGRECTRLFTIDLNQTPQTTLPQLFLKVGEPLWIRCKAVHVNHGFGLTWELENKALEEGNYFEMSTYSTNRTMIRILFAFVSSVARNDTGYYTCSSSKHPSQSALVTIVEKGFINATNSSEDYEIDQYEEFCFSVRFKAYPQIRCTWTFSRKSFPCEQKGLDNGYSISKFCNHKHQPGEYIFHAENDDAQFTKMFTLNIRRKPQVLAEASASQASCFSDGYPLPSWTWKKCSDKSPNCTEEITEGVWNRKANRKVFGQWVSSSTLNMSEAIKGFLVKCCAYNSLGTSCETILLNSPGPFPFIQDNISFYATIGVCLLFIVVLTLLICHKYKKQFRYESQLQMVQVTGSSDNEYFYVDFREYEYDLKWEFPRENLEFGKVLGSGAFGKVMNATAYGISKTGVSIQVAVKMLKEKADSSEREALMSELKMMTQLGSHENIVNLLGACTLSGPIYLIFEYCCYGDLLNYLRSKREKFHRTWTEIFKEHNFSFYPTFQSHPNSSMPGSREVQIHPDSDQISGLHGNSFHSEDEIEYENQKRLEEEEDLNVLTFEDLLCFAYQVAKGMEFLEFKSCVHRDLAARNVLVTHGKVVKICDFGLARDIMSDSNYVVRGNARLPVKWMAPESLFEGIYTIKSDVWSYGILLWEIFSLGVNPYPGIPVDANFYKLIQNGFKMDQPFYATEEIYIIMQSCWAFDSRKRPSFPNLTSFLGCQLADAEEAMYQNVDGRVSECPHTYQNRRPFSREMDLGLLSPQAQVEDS
Chain of Receptor-type tyrosine-protein kinase FLT3 (Homo sapiens) (P36888 whole entry): as above
Chain of Tyrosine-protein kinase Tec (Homo sapiens) (P42680 whole entry): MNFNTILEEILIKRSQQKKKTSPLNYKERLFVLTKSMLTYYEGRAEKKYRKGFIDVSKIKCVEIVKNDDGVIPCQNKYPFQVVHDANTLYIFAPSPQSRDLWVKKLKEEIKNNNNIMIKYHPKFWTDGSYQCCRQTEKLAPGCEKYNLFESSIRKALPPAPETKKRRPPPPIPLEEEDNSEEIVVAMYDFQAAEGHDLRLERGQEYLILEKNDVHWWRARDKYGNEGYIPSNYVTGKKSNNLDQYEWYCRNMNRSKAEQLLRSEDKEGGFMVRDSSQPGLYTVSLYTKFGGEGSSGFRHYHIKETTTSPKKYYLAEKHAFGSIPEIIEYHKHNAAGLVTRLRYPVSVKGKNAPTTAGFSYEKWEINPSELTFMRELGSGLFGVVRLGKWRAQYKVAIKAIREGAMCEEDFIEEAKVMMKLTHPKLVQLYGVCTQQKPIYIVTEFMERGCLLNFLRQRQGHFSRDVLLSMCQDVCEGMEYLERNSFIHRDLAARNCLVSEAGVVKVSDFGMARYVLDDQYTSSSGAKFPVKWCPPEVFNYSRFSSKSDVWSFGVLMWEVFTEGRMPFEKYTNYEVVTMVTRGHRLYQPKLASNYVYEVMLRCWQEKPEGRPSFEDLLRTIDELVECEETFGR

C=CC(=O)Nc1cc(Nc2ncc(Cl)c(O[C@@H]3CO[C@H]4[C@@H]3OC[C@H]4OC)n2)ccc1N(C)CCN(C)C
Cmax [1]: 238 ng/mL
CL [2]: 155.22%
inhibition [3]: 98%
inhibition [4]: 9%
inhibition [5]: 36%
pIC50 [6]: 6.88
inhibition [7]: 106%
inhibition [8]: Dde
Activity (U-937 [9]): 61.57%
Activity (U-937 [10]): 9.85%
Activity (U-937 [11]): Active
inhibition [12]: 90%
inhibition [13]: 70%
inhibition [14]: 70%
inhibition [15]: 40%
pIC50 (U-937 [16]): 7.69

Source: ChEMBL document CHEMBL5137068, “Discovery of Hexahydrofuro[3,2-b]furans as New Kinase-Selective and Orally Bioavailable JAK3 Inhibitors for the Treatment of Leukemia Harboring a JAK3 Activating Mutant” (J Med Chem, 2022)
